Measured values as given in patent US5036059A, “1,4-Dihydropyridine-3-carboxylate derivatives” (Nippon Shinyaku Company, Limited, priority 1984, dated 1991).

How the values were obtained:
[1] = system: rats (with normal blood pressure); test: Hypotensive action, mean blood pressure of femoral artery in unanesthetized normotensive rats, oral; format: in vivo; settings: Rattus norvegicus, read-out: % Decreases in Mean Blood Pressure [at peak effect]; for inhibition in vivo at 1 mg/kg: 1 mg/kg oral; for inhibition in vivo at 3 mg/kg: 3 mg/kg oral; for inhibition in vivo at 10 mg/kg: 10 mg/kg oral
Experimental: Blood pressure of femoral artery of rats (with normal blood pressure) under unanesthetized condition was measured directly using a pressure tranducer.
The present invention compounds were given orally at doses of 1, 3 and 10 mg/kg, and changes in blood pressure were continuously recorded. Percent decreases of mean blood pressure at the peak effect were calculated. The maximum changes in mean blood pressure (%) were shown as "hypotensive action" (Table 2).
Hypotensive action of diltiazem (which is a known hypotensive drug) measured by the same method at the doses of 3, 10 and 30 mg/kg were 0, 11.2 and 33.0%, respectively. Hypotensive action of the compound of Example 4 which is one of the most representative compounds of this invention was tested using spontaneously hypertensive rats and was compared with those of Nifedipine and Diltiazem hydrochloride. The method applied was that the drugs were orally given to the rats of which systolic arterial blood pressure were higher than 180 mmHg when it was measured plethysmographically using tail arteries. (Table 3)

[2] = system: guinea pig heart; test: Coronary vasodilating action, constant pressure perfusion of isolated guinea pig heart (Langendorff); settings: Cavia porcellus, via coronary artery, read-out: Perfusion Increasing Rate; for activation at 0.001 mg: 10^-6 gram/heart; for activation at 0.0001 mg: 10^-7 gram/heart
Experimental: Constant pressure perfusion samples of guinea pig heart isolated by a method according to Langendorff were treated with the present invention compounds by administration via coronary artery and the effect was examined (Table 1).
With reference to coronary vasodilating action of diltiazem measured by the same method, the increasing rates in perfusion by administration of 10^-7, 10^-6 and 10^-5 gram/heart were 4, 16 and 55%, respectively.

| Compound | inhibition in vivo at 1 mg/kg [1] [%] | inhibition in vivo at 3 mg/kg [1] [%] | inhibition in vivo at 10 mg/kg [1] [%] | activation at 0.001 mg [2] [%] | activation at 0.0001 mg [2] [%] |
| --- | --- | --- | --- | --- | --- |
| CC1=C(C(=O)OCCN(C)Cc2ccccc2)C(c2cccc([N+](=O)[O-])c2)C(P2(=O)OCCCO2)=C(C)N1 (stereo not drawn) [Example 2, 2-(N-benzyl-N-methylamino)ethyl 2,6-dimethyl-4-(3-nitrophenyl)-5-(2-oxo-1,3,2-dioxaphosphorinan-2-yl)-1,4-dihydropyridine-3-carboxylate] | 18.4 | 39.2 | 50.1 | – | – |
| CCOC(=O)C1=C(C)NC(C)=C(P2(=O)OCCCO2)C1c1ccccc1[N+](=O)[O-] (stereo not drawn) [Example 5, Ethyl 2,6-dimethyl-4-(2-nitrophenyl)-5-(2-oxo-1,3,2-dioxaphosphorinan-2-yl)-1,4-dihydropyridine-3-carboxylate] | 39.7 | 43.3 | 46.2 | – | – |
| CC1=C(C(=O)OC(C)C)C(c2ccccc2[N+](=O)[O-])C(P2(=O)OCCCO2)=C(C)N1 (stereo not drawn) [Example 6, Isopropyl 2,6-dimethyl-4-(2-nitrophenyl)-5-(2-oxo-1,3,2-dioxaphosphorinan-2-yl)-1,4-dihydropyridine-3-carboxylate] | – | – | – | 52 | 10 |
| COC(=O)C1=C(C)NC(C)=C(P2(=O)OCC(C)(C)CO2)C1c1cccc([N+](=O)[O-])c1 (stereo not drawn) [Example 7, Methyl 2,6-dimethyl-5-(5,5-dimethyl-2-oxo-1,3,2-dioxaphosphorinan-2-yl)-4-(3-nitrophenyl)-1,4-dihydropyridine-3-carboxylate] | 12.7 | 18.4 | 31.4 | – | – |
| CC1=C(C(=O)OCCN(C)Cc2ccccc2)C(c2cccc([N+](=O)[O-])c2)C(P2(=O)OCC(C)(C)CO2)=C(C)N1 (stereo not drawn) [Example 9, 2-(N-Benzyl-N-methylamino)-ethyl 2,6-dimethyl-5-(5,5-dimethyl-2-oxo-1,3,2-dioxaphosphorinan-2-yl)-4-(3-nitrophenyl)-1,4-dihydropyridine-3-carboxylate] | 12.7 | 12.9 | 40.4 | – | – |
| CC1=C(C(=O)OCCN(C)C)C(c2cccc([N+](=O)[O-])c2)C(P2(=O)OCC(C)(C)CO2)=C(C)N1 (stereo not drawn) [Example 10, 2-(N,N-Dimethylamino)ethyl 2,6-dimethyl-5-(5,5-dimethyl-2-oxo-1,3,2-dioxaphosphorinan-2-yl)-4-(3-nitrophenyl)-1,4-dihydropyridine-3-carboxylate] | – | – | – | 22 | 12 |
| CCCOCCOC(=O)C1=C(C)NC(C)=C(P2(=O)OCC(C)(C)CO2)C1c1cccc([N+](=O)[O-])c1 (stereo not drawn) [Example 11, 2-n-Propoxyethyl 2,6-dimethyl-5-(5,5-dimethyl-2-oxo-1,3,2-dioxaphosphorinan-2-yl)-4-(3-nitrophenyl)-1,4-dihydropyridine-3-carboxylate] | – | – | – | 53 | 11 |
| CC1=C(C(=O)OCCOCc2ccccc2)C(c2cccc([N+](=O)[O-])c2)C(P2(=O)OCC(C)(C)CO2)=C(C)N1 (stereo not drawn) [Example 12, 2-Benzyloxyethyl 2,6-dimethyl-5-(5,5-dimethyl-2-oxo-1,3,2-dioxaphosphorinan-2-yl)-4-(3-nitrophenyl)-1,4-dihydropyridine-3-carboxylate] | – | – | – | 67 | 14 |
| COC(=O)C1=C(C)NC(C)=C(P2(=O)OC(C)CC(C)O2)C1c1ccccc1[N+](=O)[O-] (stereo not drawn) [Example 18, Methyl 2,6-dimethyl-5-(4,6-dimethyl-2-oxo-1,3,2-dioxaphosphorinan-2-yl)-4-(2-nitrophenyl)-1,4-dihydropyridine-3-carboxylate] | 15.7 | 42.7 | 45.5 | – | – |
| CC1=C(C(=O)OCCN(C)Cc2ccccc2)C(c2cccc([N+](=O)[O-])c2)C(P2(=O)O[C@H](C)C[C@@H](C)O2)=C(C)N1 (stereo partly drawn) [Example 20, 2-(N-Benzyl-N-methylamino)-ethyl 2,6-dimethyl-5-[4(R),6(R)-dimethyl-2-oxo-1,3,2-dioxaphosphorinan-2-yl]-4-(3-nitrophenyl)-1,4-dihydropyridine-3-carboxylate] | – | – | – | 32 | 10 |
| CCC1(CC)COP(=O)(C2=C(C)NC(C)=C(C(=O)OC)C2c2ccccc2[N+](=O)[O-])OC1 (stereo not drawn) [Example 24, Methyl 5-(5,5-diethyl-2-oxo-1,3,2-dioxaphosphorinan-2-yl)-2,6-dimethyl-4-(2-nitrophenyl)-1,4-dihydropyridine-3-carboxylate] | – | – | – | 41 | 12 |
| COC(=O)C1=C(C)NC(C)=C(P2(=O)OCC(C)CO2)C1c1cccc([N+](=O)[O-])c1 (stereo not drawn) [Example 26] | 28.7 | 37.1 | 43.8 | – | – |
| CCC1COP(=O)(C2=C(C)NC(C)=C(C(=O)OC)C2c2cccc([N+](=O)[O-])c2)OC1 (stereo not drawn) [Example 28, Methyl 5-(5-ethyl-Z-oxo-1,3,2-dioxaphosphorinan-2-yl)-2,6-dimethyl-4-(3-nitrophenyl)-1,4-dihydropyridine-3-carboxylate] | 16.5 | 26.6 | 33.9 | – | – |
| CCC1COP(=O)(C2=C(C)NC(C)=C(C(=O)OCCN(C)Cc3ccccc3)C2c2cccc([N+](=O)[O-])c2)OC1 (stereo not drawn) [Example 29, 2-(N-Benzyl-N-methylamino)-ethyl 5-(5-ethyl-2-oxo-1,3,2-dioxaphosphorinan-2-yl)-2,6-dimethyl-4-(3-nitrophenyl)-1,4-dihydropyridine-3-carboxylate] | – | – | – | 59 | 34 |
| CCC1COP(=O)(C2=C(C)NC(C)=C(C(=O)OC)C2c2ccccc2[N+](=O)[O-])OC1 (stereo not drawn) [Example 30, Methyl 5-(5-ethyl-2-oxo-1,3,2-dioxaphosphorinan-2-yl)-2,6-dimethyl-4-(2-nitrophenyl)-1,4-dihydropyridine-3-carboxylate] | – | – | – | 26 | 13 |
| COC(=O)C1=C(C)NC(C)=C(P2(=O)OCC(C(C)C)CO2)C1c1ccccc1[N+](=O)[O-] (stereo not drawn) [Example 34, Methyl 2,6-dimethyl-5-(5-isopropyl-2-oxo-1,3,2-dioxaphosphorinan-2-yl)-4-(2-nitrophenyl)-1,4-dihydropyridine-3-carboxylate] | – | – | – | 38 | 13 |
| CC1=C(C(=O)OCCN(C)Cc2ccccc2)C(c2cccc([N+](=O)[O-])c2)C(P2(=O)OCC3(CCC3)CO2)=C(C)N1 (stereo not drawn) [Example 37, 2-(N-Benzyl-N-methylamino)-ethyl-2,6-dimethyl-4-(3-nitrophenyl)-5-(7-oxo-6,8-dioxa-7-phosphaspiro(3,5)nonan-7-yl)-1,4-dihydropyridine-3-carboxylate] | – | – | – | 26 | 22 |
| CCOC(=O)C1=C(C)NC(C)=C(P2(=O)OCC3(CCC3)CO2)C1c1ccccc1[N+](=O)[O-] (stereo not drawn) [Example 39, Ethyl 2,6-dimethyl-4-(2-nitrophenyl)-5-(7-oxo-6,8-dioxa-7-phosphaspiro(3,5)nonan-7-yl)-1,4-dihydropyridine-3-carboxylate] | – | – | – | 31 | 12 |
| COC(=O)C1=C(C)NC(C)=C(P2(=O)OCC3(CCCCC3)CO2)C1c1cccc([N+](=O)[O-])c1 (stereo not drawn) [Example 40, Methyl 2,6-dimethyl-4-(3-nitrophenyl)-5-(3-oxo-2,4-dioxa-3-phosphoaspiro(5,5)undecan-3-yl)-1,4-dihydropyridine-3-carboxylate] | – | – | – | 82 | 29 |
| CCOC(=O)C1=C(C)NC(C)=C(P2(=O)OCCCO2)C1c1ccccc1C(F)(F)F (stereo not drawn) [Example 51, Ethyl 2,6-dimethyl-5-(2-oxo-1,3,2-dioxaphosphorinan-2-yl)-4-(2-trifluoromethylphenyl)-1,4-dihydropyridine-3-carboxylate] | 21.1 | 43 | 45.4 | – | – |
| CC1=C(C(=O)OCCN(C)Cc2ccccc2)C(c2ccccc2OC(F)F)C(P2(=O)OCC(C)(C)CO2)=C(C)N1 (stereo not drawn) [Example 64, 2-(N-Benzyl-N-methylamino)-ethyl 4-(2-difluoromethoxyphenyl)-2,6-dimethyl-5-(5,5-dimethyl-2-oxo-1,3,2-dioxaphosphorinan-2-yl)-1,4-dihydropyridine-3-carboxylate] | 6.9 | 16.5 | 41.5 | – | – |
| CC1=C(C(=O)OCC2CC2)C(c2ccccc2[N+](=O)[O-])C(P2(=O)OCCCO2)=C(C)N1 (stereo not drawn) [Example 68, Cyclopropylmethyl 2,6-dimethyl-4-(2-nitrophenyl)-5-(2-oxo-1,3,2-dioxaphosphorinan-2-yl)-1,4-dihydropyridine-3-carboxylate] | 13 | 41.7 | 45.8 | – | – |
| CC(=O)COC(=O)C1=C(C)NC(C)=C(P2(=O)OCCCO2)C1c1ccccc1C(F)(F)F (stereo not drawn) [Example 76, 2-Oxopropyl 2,6-dimethyl-5-(2-oxo-1,3,2-dioxaphosphorinan-2-yl)-4-(2-trifluoromethylphenyl)-1,4-dihydropyridine-3-carboxylate] | 10.5 | 35 | 40.2 | – | – |
